From ChEMBL document CHEMBL1145390, “Synthesis and preliminary biological characterization of new semisynthetic derivatives of ramoplanin” (J Med Chem, 2007)
≈ marks a conversion by molar mass, not a printed value. Numbered stars: 1 amine (or outer) side, 2 acyl side, 3 side chain; on linkers, the order of the positions; unused ones are H or OH. Bridge positions count the residues as written; N and C are the ends. Square brackets hold non-standard residues; d marks the D form. Peptide text beside a SMILES is read from it. * marks the point of attachment. Hpg(αMan(1-2)αMan) = N[C@H](C(=O)O)c1ccc(O[C@H]2O[C@H](CO)[C@@H](O)[C@H](O)[C@@H]2O[C@H]2O[C@H](CO)[C@@H](O)[C@H](O)[C@@H]2O)cc1; Octa(2Z,4E)dienoyl(7-Me) = CC(C)C/C=C/C=C\C(=O)*; X1 = NC(=O)[C@@H](O[*:3])[C@H](N[*:1])C(=O)[*:2]; Hpg(3-Cl) = N[C@H](C(=O)O)c1ccc(O)c(Cl)c1; d(aThr) = C[C@@H](O)[C@@H](N)C(=O)O; dHpg = N[C@@H](C(=O)O)c1ccc(O)cc1; Hpg = N[C@H](C(=O)O)c1ccc(O)cc1; aThr = C[C@H](O)[C@H](N)C(=O)O; dOrn = NCCC[C@@H](N)C(=O)O

Columns and labels:
Enterococcus faecalis [1] = assay: Antibacterial activity against Enterococcus faecalis after 24 hrs by broth microdilution method; assay type: functional; settings: read-out: MIC
Staphylococcus aureus [2] = assay: Antibacterial activity against Staphylococcus aureus Smith after 24 hrs by broth microdilution method; assay type: functional; settings: read-out: MIC
Staphylococcus aureus [3] = assay: Antibacterial activity against methicillin-resistant Staphylococcus aureus clinical isolate after 24 hrs by broth microdilution method; assay type: functional; settings: read-out: MIC
Staphylococcus aureus [4] = assay: Antibacterial activity against methicillin-resistant and vancomycin-intermediate resistant Staphylococcus aureus clinical isolate after 24 hrs by broth microdilution method; assay type: functional; settings: read-out: MIC
Staphylococcus aureus [5] = assay: Antibacterial activity against vancomycin-intermediate resistant Staphylococcus aureus clinical isolate after 24 hrs by broth microdilution method; assay type: functional
Streptococcus pyogenes = assay: Antibacterial activity against Streptococcus pyogenes C203 after 24 hrs by broth microdilution method; assay type: functional; settings: C203, 24 h, read-out: MIC
Enterococcus faecium [6] = assay: Antibacterial activity against Enterococcus faecium after 24 hrs by broth microdilution method; assay type: functional; settings: read-out: MIC
Escherichia coli = assay: Antibacterial activity against Escherichia coli SKF-12140 after 24 hrs by broth microdilution method; assay type: functional; settings: read-out: MIC
Candida albicans = assay: Antifungal activity against Candida albicans SKF-2270 after 24 hrs by broth microdilution method; assay type: functional; settings: read-out: MIC
[7] = Toxicity assessed as hemolysis in erythrocytes at 180 mg/L; assay type: cell-based, Erythrocyte; settings: human, erythrocytes; read-out: Activity
[8] = Toxicity assessed as hemolysis in erythrocytes at 90 mg/L; assay type: cell-based, Erythrocyte; settings: human, erythrocytes; read-out: Activity
[9] = Toxicity assessed as hemolysis in erythrocytes at 100 mg/L; assay type: cell-based, Erythrocyte; settings: human, read-out: Activity
Enterococcus faecalis [10] = assay: Antibacterial activity against vancomycin A-resistant Enterococcus faecalis after 24 hrs by broth microdilution method; assay type: functional; settings: read-out: MIC
Enterococcus faecium [11] = assay: Antibacterial activity against vancomycin A-resistant Enterococcus faecium clinical isolate after 24 hrs by broth microdilution method; assay type: functional; settings: read-out: MIC
Staphylococcus aureus [12] = assay: Antibacterial activity against vancomycin-intermediate resistant Staphylococcus aureus clinical isolate in presence of 30% bovine serum after 24 hrs by broth microdilution method; assay type: functional
Staphylococcus aureus [13] = assay: Antibacterial activity against Staphylococcus aureus Smith in presence of 30% bovine serum after 24 hrs by broth microdilution method; assay type: functional
Enterococcus faecalis [14] = assay: Antibacterial activity against vancomycin-resistant Enterococcus faecalis in presence of 30% bovine serum after 24 hrs by broth microdilution method; assay type: functional
Enterococcus faecium [15] = assay: Antibacterial activity against vancomycin A-resistant Enterococcus faecium clinical isolate in presence of 30% bovine serum after 24 hrs by broth microdilution method; assay type: functional

CC(C)C/C=C/C=C\C(=O)N[C@@H](CC(N)=O)C(=O)N[C@@H]1C(=O)N[C@H](c2ccc(O)cc2)C(=O)N[C@H](CCCN)C(=O)N[C@H]([C@@H](C)O)C(=O)N[C@@H](c2ccc(O)cc2)C(=O)N[C@H](c2ccc(O)cc2)C(=O)N[C@@H]([C@H](C)O)C(=O)N[C@@H](Cc2ccccc2)C(=O)N[C@H](CCCN)C(=O)N[C@@H](c2ccc(O[C@H]3O[C@H](CO)[C@@H](O)[C@H](O)[C@@H]3O[C@H]3O[C@H](CO)[C@@H](O)[C@H](O)[C@@H]3O)cc2)C(=O)N[C@H]([C@@H](C)O)C(=O)N[C@@H](c2ccc(O)cc2)C(=O)NCC(=O)N[C@@H](CC(C)C)C(=O)N[C@H](C)C(=O)N[C@@H](c2ccc(O)c(Cl)c2)C(=O)O[C@@H]1C(N)=O [RAMOPLANIN A2] ({Octa(2Z,4E)dienoyl(7-Me)}-N[X1][dHpg][dOrn][d(aThr)][Hpg][dHpg][aThr]F[dOrn][Hpg(αMan(1-2)αMan)][d(aThr)][Hpg]GL[dA][Hpg(3-Cl)]; ester 2-C)
MIC (Enterococcus faecalis [1]): < 0.03 µg/mL | MIC (Staphylococcus aureus [2]): < 0.03 µg/mL | MIC (Staphylococcus aureus [3]): 0.06 µg/mL (≈ 0.0235 µM) | MIC (Staphylococcus aureus [4]): 1 µg/mL (≈ 0.392 µM) | MIC (Staphylococcus aureus [5]): 0.25 µg/mL (≈ 0.0979 µM) | MIC (Streptococcus pyogenes): < 0.03 µg/mL | MIC (Enterococcus faecium [6]): < 0.03 µg/mL | MIC (Escherichia coli): < 32 µg/mL | MIC (Candida albicans): < 32 µg/mL | hemolysis at 180 mg/L [7]: 79% | hemolysis at 90 mg/L [8]: 81% | hemolysis at 100 mg/L [9]: 87%

CCc1ccccc1CC(=O)N[C@@H](CC(N)=O)C(=O)N[C@@H]1C(=O)N[C@H](c2ccc(O)cc2)C(=O)N[C@H](CCCN)C(=O)N[C@H]([C@@H](C)O)C(=O)N[C@@H](c2ccc(O)cc2)C(=O)N[C@H](c2ccc(O)cc2)C(=O)N[C@@H]([C@H](C)O)C(=O)N[C@@H](Cc2ccccc2)C(=O)N[C@H](CCCN)C(=O)N[C@@H](c2ccc(O[C@H]3O[C@H](CO)[C@@H](O)[C@H](O)[C@@H]3O[C@H]3O[C@H](CO)[C@@H](O)[C@H](O)[C@@H]3O)cc2)C(=O)N[C@H]([C@@H](C)O)C(=O)N[C@@H](c2ccc(O)cc2)C(=O)NCC(=O)N[C@@H](CC(C)C)C(=O)N[C@H](C)C(=O)N[C@@H](c2ccc(O)c(Cl)c2)C(=O)O[C@@H]1C(N)=O
MIC (Enterococcus faecalis [1]): 0.5 µg/mL (≈ 0.195 µM) | MIC (Staphylococcus aureus [2]): 0.125 µg/mL (≈ 0.0488 µM) | MIC (Staphylococcus aureus [3]): 0.5 µg/mL (≈ 0.195 µM) | MIC (Staphylococcus aureus [4]): 2 µg/mL (≈ 0.78 µM) | MIC (Staphylococcus aureus [5]): 1 µg/mL (≈ 0.39 µM) | MIC (Streptococcus pyogenes): ≤ 0.125 µg/mL | MIC (Enterococcus faecalis [10]): 0.5 µg/mL (≈ 0.195 µM) | MIC (Enterococcus faecium [6]): ≤ 0.06 µg/mL | MIC (Enterococcus faecium [11]): 0.5 µg/mL (≈ 0.195 µM) | MIC (Escherichia coli): > 128 µg/mL | MIC (Candida albicans): > 128 µg/mL | MIC (Staphylococcus aureus [12]): 4 µg/mL | MIC (Staphylococcus aureus [13]): 1 µg/mL | MIC (Enterococcus faecalis [14]): 2 µg/mL | MIC (Enterococcus faecium [15]): 4 µg/mL

CC(C)C[C@@H]1NC(=O)CNC(=O)[C@H](c2ccc(O)cc2)NC(=O)[C@@H]([C@@H](C)O)NC(=O)[C@H](c2ccc(O[C@H]3O[C@H](CO)[C@@H](O)[C@H](O)[C@@H]3O[C@H]3O[C@H](CO)[C@@H](O)[C@H](O)[C@@H]3O)cc2)NC(=O)[C@@H](CCCN)NC(=O)[C@H](Cc2ccccc2)NC(=O)[C@H]([C@@H](C)O)NC(=O)[C@@H](c2ccc(O)cc2)NC(=O)[C@H](c2ccc(O)cc2)NC(=O)[C@@H](C(C)C)NC(=O)[C@@H](CCCN)NC(=O)[C@@H](c2ccc(O)cc2)NC(=O)[C@@H](CNC(=O)[C@H](CC(N)=O)NC(=O)Cc2ccc(Cl)cc2)[C@@H](C(N)=O)OC(=O)[C@H](c2ccc(O)c(Cl)c2)NC(=O)[C@@H](C)NC1=O
MIC (Enterococcus faecalis [1]): 0.5 µg/mL (≈ 0.194 µM) | MIC (Staphylococcus aureus [2]): 0.5 µg/mL (≈ 0.194 µM) | MIC (Staphylococcus aureus [3]): 0.5 µg/mL (≈ 0.194 µM) | MIC (Staphylococcus aureus [4]): 4 µg/mL (≈ 1.55 µM) | MIC (Staphylococcus aureus [5]): 2 µg/mL (≈ 0.774 µM) | MIC (Streptococcus pyogenes): ≤ 0.03 µg/mL | MIC (Enterococcus faecalis [10]): 0.5 µg/mL (≈ 0.194 µM) | MIC (Enterococcus faecium [6]): 1 µg/mL (≈ 0.387 µM) | MIC (Enterococcus faecium [11]): 1 µg/mL (≈ 0.387 µM) | MIC (Escherichia coli): > 32 µg/mL | MIC (Candida albicans): > 32 µg/mL | hemolysis at 180 mg/L [7]: 0% | hemolysis at 90 mg/L [8]: 0%

CCCCCOc1ccc(C(=O)N[C@@H](CC(N)=O)C(=O)NC[C@@H]2C(=O)N[C@H](c3ccc(O)cc3)C(=O)N[C@H](CCCN)C(=O)N[C@H](C(C)C)C(=O)N[C@@H](c3ccc(O)cc3)C(=O)N[C@H](c3ccc(O)cc3)C(=O)N[C@@H]([C@@H](C)O)C(=O)N[C@@H](Cc3ccccc3)C(=O)N[C@H](CCCN)C(=O)N[C@@H](c3ccc(O[C@H]4O[C@H](CO)[C@@H](O)[C@H](O)[C@@H]4O[C@H]4O[C@H](CO)[C@@H](O)[C@H](O)[C@@H]4O)cc3)C(=O)N[C@H]([C@@H](C)O)C(=O)N[C@@H](c3ccc(O)cc3)C(=O)NCC(=O)N[C@@H](CC(C)C)C(=O)N[C@H](C)C(=O)N[C@@H](c3ccc(O)c(Cl)c3)C(=O)O[C@@H]2C(N)=O)cc1
MIC (Enterococcus faecalis [1]): 0.25 µg/mL (≈ 0.0954 µM) | MIC (Staphylococcus aureus [2]): 8 µg/mL (≈ 3.05 µM) | MIC (Staphylococcus aureus [3]): 2 µg/mL (≈ 0.763 µM) | MIC (Staphylococcus aureus [4]): 8 µg/mL (≈ 3.05 µM) | MIC (Staphylococcus aureus [5]): 4 µg/mL (≈ 1.53 µM) | MIC (Streptococcus pyogenes): 0.25 µg/mL (≈ 0.0954 µM) | MIC (Enterococcus faecalis [10]): 0.25 µg/mL (≈ 0.0954 µM) | MIC (Enterococcus faecium [6]): 0.25 µg/mL (≈ 0.0954 µM) | MIC (Enterococcus faecium [11]): 0.25 µg/mL (≈ 0.0954 µM) | MIC (Escherichia coli): > 32 µg/mL | MIC (Candida albicans): > 32 µg/mL | hemolysis at 180 mg/L [7]: 10% | hemolysis at 90 mg/L [8]: 8%
